Activity calls are given as the source filed them. No cut-off for these calls is given here.
The molecules below were run on Radical scavenging activity (assay: Antioxidant activity assessed as DPPH radical scavenging activity by spectrophotometric assay).
Type: functional
In the case of `COc1ccccc1Nc1cc2c(c(N)c1C(C)C)C[C@@H]1[C@](C)(CCC[C@@]1(C)C(=O)O)C2`, the Activity was “Active”.
For `COc1ccc(Nc2c(C(C)C)ccc3c2C[C@@H]2[C@](C)(CCC[C@@]2(C)C(=O)O)C3)cc1`, the Activity was “Active”.
In the case of `COc1ccccc1Nc1cc2c(c(Nc3ccccc3OC)c1C(C)C)C[C@@H]1[C@](C)(CCC[C@@]1(C)C(=O)O)C2`, the Activity was “Active”.
`CC(C)c1c(Nc2ccccc2)cc2c(c1N)C[C@@H]1[C@](C)(CCC[C@@]1(C)C(=O)O)C2` was tested, and the Activity was “Active”.
For `COc1ccc(Nc2cc3c(c(Nc4ccc(OC)cc4)c2C(C)C)C[C@@H]2[C@](C)(CCC[C@@]2(C)C(=O)O)C3)cc1`, the Activity was “Active”.
`COc1ccc(Nc2cc3c(c(N)c2C(C)C)C[C@@H]2[C@](C)(CCC[C@@]2(C)C(=O)O)C3)cc1` was tested, and the Activity was “Active”.
In the case of `Cc1cc(C(C)(C)C)c(O)c(C(C)(C)C)c1`, the Activity was “Active”.
For `CC(C)c1c(Nc2ccccc2)cc2c(c1[N+](=O)[O-])C[C@@H]1[C@](C)(CCC[C@@]1(C)C(=O)O)C2`, the Activity was “Active”.
`CC(C)c1ccc2c(c1Nc1ccccc1)C[C@@H]1[C@](C)(CCC[C@@]1(C)C(=O)O)C2` was tested, and the Activity was “Active”.
`CC(C)c1c(Nc2ccccc2)cc2c(c1Nc1ccccc1)C[C@@H]1[C@](C)(CCC[C@@]1(C)C(=O)O)C2` was tested, and the Activity was “Active”.
In the case of `COc1ccc(Nc2cc3c(c([N+](=O)[O-])c2C(C)C)C[C@@H]2[C@](C)(CCC[C@@]2(C)C(=O)O)C3)cc1`, the Activity was “Active”.
For `COc1ccccc1Nc1cc2c(cc1C(C)C)C[C@@H]1[C@](C)(CCC[C@@]1(C)C(=O)O)C2`, the Activity was “Active”.
With `COc1ccccc1Nc1cc2c(c([N+](=O)[O-])c1C(C)C)C[C@@H]1[C@](C)(CCC[C@@]1(C)C(=O)O)C2` the Activity was “Active”.
For `CC(C)c1cc2c(cc1Nc1ccccc1)C[C@@]1(C)CCC[C@@](C)(C(=O)O)[C@@H]1C2`, the Activity was “Active”.
For `COc1ccccc1Nc1c(C(C)C)ccc2c1C[C@@H]1[C@](C)(CCC[C@@]1(C)C(=O)O)C2`, the Activity was “Active”.
In the case of `COc1ccc(Nc2cc3c(cc2C(C)C)C[C@@H]2[C@](C)(CCC[C@@]2(C)C(=O)O)C3)cc1`, the Activity was “Active”.
